The record followed here is PubChem BioAssay AID463206 (Broad Institute, 2010).

The source made the active and inactive calls.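 Rule for the calls: active = caspase luminescence falls with dose and the half-maximal concentration AC50 from the fitted curve is at or below a set limit; inconclusive = flat fit at 30 to 70% signal loss, or invalid fit; inactive = AC50 above the limit, or signal rises instead.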 A value given as a limit tells only on which side of the number the result lay.

For the assay, the system named is INS-1E cytokine-induced caspase-3/7, Caspase-Glo luminescence, 48 h. The assay is described as follows: suppression of cytokine-driven beta-cell apoptosis – INS-1E rat cells, luminescence, orthogonal assay for beta-cell apoptosis protection project, dose response (AID 463206).

Turning to `CC1CCc2c(sc3nc(C(C)(C)C)nc(N4CCN(C(=O)CCl)CC4)c23)C1` (configuration not stated), the AC50 is > 26 µM (inactive).
Take `Cc1[nH]c2ccccc2c1CN1CCC(Cc2ccccc2)CC1`: the AC50 was > 26 µM (inactive).
In the case of `O=C(C[C@@H]1C/C=C/CC[C@H](Cc2ccc(F)cc2)C(=O)OC[C@@H](Cc2ccccc2)NC1=O)N[C@H](CO)Cc1ccccc1` it was > 26 µM (inactive); in that of `Cc1ccc(C(C)C)c(OCC(O)CN2CCc3ccccc3C2)c1` (configuration not stated), > 12 µM (inactive); in that of `CCOc1ccc(OCC)c(S(=O)(=O)NCCOC23CC4CC(CC(C4)C2)C3)c1`, 15.9 µM.
For the compound `FC(F)(F)c1ccc(CN2C[C@@H]3C(c4ccc(C(F)(F)F)cc4)C4(c5cccnc5)CC3(C4)[C@H]2c2ccccc2)cc1` (some centres not stated), the AC50 is > 26 µM (inactive).
In the case of `O=C(N/N=C/c1cnc(N2CCCCC2)s1)c1ccc(C(F)(F)F)cc1` it was > 26 µM (inactive); in that of `CN(C)c1ccc(/C=C/c2ccc3ccccc3n2)cc1`, > 26 µM (inactive).
For `Cc1ccc(S(=O)(=O)NCc2ccncc2)c(C)c1C`, the AC50 was > 26 µM (inactive).
The result for `Cc1ccn2c(Nc3ccccc3)c(-c3ccccn3)nc2c1` reads > 26 µM (inactive).
The result for `Oc1ccc2ccccc2c1N=Nc1ccccn1` reads > 26 µM (inactive); that for `CCCCNc1c(-c2ccc(-c3cccc(Cl)c3)cc2)nc2ccccn12`, > 26 µM (inactive); that for `CCCC(=O)NC(c1ccc(C)cc1)c1ccc2cccnc2c1O` (configuration not stated), > 26 µM (inactive).
The result for `Cc1ccc(C(=O)C[n+]2cc(-c3ccccc3)n3c2CCCCC3)cc1` reads > 26 µM (inactive).
Turning to `CCCCN(C)CCNC(=O)c1cc2c(-c3ccccc3F)nn(C)c2s1`, the AC50 is > 12 µM (inactive).
`CCOc1ccc(C(=O)c2cc([N+](=O)[O-])ccc2N2CCOCC2)cc1`: the AC50 is 0.83 µM.
In the case of `O=[N+]([O-])c1ccc(N=Nc2c(Cl)cc(O)cc2Cl)cc1` it was > 26 µM (inactive).
In the case of `CC(CC(=O)N1CCN(c2cccc(Cl)c2)CC1)S(=O)(=O)c1ccc2c(c1)NC(=O)CO2` (configuration not stated) it was > 26 µM (inactive); in that of `OCCN1CCN(C2Cc3cc(Cl)ccc3Sc3ccc(Cl)cc32)CC1` (configuration not stated) (tested in a mixture with another compound), > 26 µM (inactive).
`CC(=O)c1sc(NC(=O)C2(F)C(F)(F)C(F)(F)C(F)(F)C(F)(F)C2(F)F)nc1C`: the AC50 was > 26 µM (inactive).
Consider `CCC(CC)C(=O)c1c[nH]c(C(=O)NCc2ccccn2)c1`, for which the AC50 is > 26 µM (inactive).
In the case of `COc1ccc(-[n+]2c(-c3ccccc3)cc(-c3ccccc3)cc2-c2ccccc2)cc1` it was > 26 µM (inactive); in that of `Cc1nc2ccccc2c(=O)n1/N=C/c1c(O)ccc2ccccc12`, > 26 µM (inactive); in that of `CN(C)CCCN(C(=O)COc1ccc(Cl)cc1)c1nc2cc3c(cc2s1)OCO3`, > 26 µM (inactive).
The result for `CC(C)(C)c1ccc(C2CC2C(=O)N/N=C\c2ccc[nH]2)cc1` (configuration not stated) reads > 26 µM (inactive).
The result for `COc1ccccc1NC(=O)CN(c1ccc(C23CC4CC(CC(C4)C2)C3)cc1)S(C)(=O)=O` reads > 26 µM (inactive); that for `COc1cccc(/C=N/NC(=O)c2cc(-c3ccccn3)nc3ccccc23)c1O`, > 26 µM (inactive).
Take `COc1ccc(/C(C)=N/NC(=O)c2cccc(S(=O)(=O)N3CCCC3)c2)c(O)c1`: the AC50 was > 26 µM (inactive).
The result for `O=C(Nc1cccc(C(F)(F)F)c1)Nc1ccc(N2CCCC2)c(S(=O)(=O)Nc2ccccc2Cl)c1` reads > 26 µM (inactive).
The result for `O=C(Nc1nc2c(F)cc(F)cc2s1)c1ccccn1` reads > 26 µM (inactive).
The result for `C=C1C(=O)O[C@H]2C[C@@H](C)[C@@H]3C=CC(=O)[C@@]3(C)C[C@H]12` reads 2.83 µM.
For the compound `N#Cc1ccc(-c2csc(NNC(=O)c3ccccc3)n2)cc1`, the AC50 was > 26 µM (inactive).
Turning to `CCCCCCCCCn1ccc(=N)cc1`, the AC50 is > 26 µM (inactive).
For `Nc1ccc(Br)cc1-c1nc2ccccc2[nH]c1=O`, the AC50 is > 26 µM (inactive).
As for `Cc1ccc(-c2[nH]ncc2/C=N/n2c(COc3ccccc3C)nc3ccccc3c2=O)cc1`, the AC50 is > 26 µM (inactive).
Take `CCC(=O)NC(c1ccc(Cl)cc1Cl)c1ccc2cccnc2c1O` (configuration not stated): the AC50 is > 12 µM (inactive).
With `CN(C)c1nc(N/N=C/c2ccccc2O)nc(Nc2ccc(F)cc2)n1`, the AC50 was > 26 µM (inactive).
Turning to `O=C(N/N=C(\c1ccccc1)c1ccccn1)c1cccc([N+](=O)[O-])c1`, the AC50 is > 26 µM (inactive).
With `O=C(CNC(=O)c1ccc2c(c1)OCO2)N/N=C/c1cc(Br)ccc1O`, the AC50 is > 26 µM (inactive).
Consider `CCC(=O)N1c2ccc(S(=O)(=O)N3CCN(c4ccc([N+](=O)[O-])cc4)CC3)cc2CC1C` (configuration not stated), for which the AC50 was > 26 µM (inactive).
Turning to `O=C(c1cc(-c2cccc(Cl)c2)nc2ccccc12)N1CCN(c2ccccn2)CC1`, the AC50 was > 26 µM (inactive).
In the case of `CN(C)S(=O)(=O)c1cccc(CSCc2cccc(S(=O)(=O)N(C)C)c2)c1` it was > 26 µM (inactive); in that of `CC(Oc1ccc(Br)cc1)c1nc2c3ccccc3nc(=S)n2[nH]1` (configuration not stated), > 26 µM (inactive).
The result for `COC(=O)C1=C(c2ccc(OCc3ccccc3)cc2)C[C@@H]2CC[C@H]1N2C(=O)NC1CCN(Cc2ccccc2)CC1` reads > 26 µM (inactive); that for `Cc1ccc2nc(-c3ccccn3)c(NC3CCCC3)n2c1`, > 12 µM (inactive).
In the case of `O=C1/C(=C/c2ccc(N3CCOCC3)o2)SC(=Nc2ccccc2)N1CCc1c[nH]c2ccccc12` it was > 26 µM (inactive); in that of `N#Cc1c([N+](=O)[O-])cc([N+](=O)[O-])cc1S(=O)(=O)Cc1ccccc1`, > 26 µM (inactive); in that of `CC(=O)NC(c1ccc(C(C)C)cc1)c1ccc2cccnc2c1O` (configuration not stated), > 26 µM (inactive).
For `CCOc1ccc(C(=O)N/N=C(\c2ccccc2)c2ccccn2)cc1`, the AC50 was > 26 µM (inactive).
In the case of `Cc1ccc(Cl)cc1NC1=C/C(=N\S(=O)(=O)c2cccs2)c2ccccc2C1=O`, the AC50 was > 26 µM (inactive).
In the case of `CC(C)(C)OC(=O)NCc1ccc(NC(=O)c2nc[nH]c2C(=O)NCCCCNC(=O)c2[nH]cnc2C(=O)Nc2ccc(CNC(=O)OC(C)(C)C)cc2)cc1` it was > 26 µM (inactive); in that of `Cc1cc(C(=O)c2ccc3ccccc3c2)c(C)o1`, > 26 µM (inactive); in that of `Cc1ccc(C)n1-c1ccc(C(=O)Nc2ccccc2)cc1`, > 26 µM (inactive).
`Cc1[nH]c2c(ccc3ccccc32)c1C1C(CCN)C1(C)C` (configuration not stated): the AC50 is > 26 µM (inactive).
Consider `COc1ccccc1N(CC(=O)N/N=C/c1c(O)ccc2ccccc12)S(C)(=O)=O`, for which the AC50 is > 26 µM (inactive).
The result for `COc1ccc(CN(C)c2ccc(S(=O)(=O)N3CCN(C)CC3)cc2[N+](=O)[O-])cc1OC` reads > 26 µM (inactive); that for `CCOC(=O)C1=C(CCc2ccccc2)NC(=O)NC1c1ccc2ccccc2c1` (configuration not stated), > 26 µM (inactive); that for `CCN(CC)S(=O)(=O)c1ccc(N2CCN(c3ccccc3OC)CC2)c(N)c1`, > 26 µM (inactive).
In the case of `Cc1c(Cl)c([N+](=O)[O-])nn1Cc1ccc(C(=O)N/N=C\c2cc(Cl)ccc2O)o1` it was > 26 µM (inactive); in that of `COc1ccc(C(NC(C)=O)c2cc(Cl)c3cccnc3c2O)cc1OC` (configuration not stated), > 26 µM (inactive).
The result for `COc1ccc2nc(N=Nc3ccc(O)c4ccccc34)sc2c1` reads > 26 µM (inactive); that for `O=S(=O)([N-]c1nc2ccccc2nc1-[n+]1ccc(Cc2ccccc2)cc1)c1ccc(Br)s1`, > 26 µM (inactive).
Take `CCN1/C(=C/C=C/c2sc3ccccc3[n+]2CC)Sc2ccccc21`: the AC50 was > 26 µM (inactive).
In the case of `CC(=O)Nc1ccc(NC2=C/C(=N/S(=O)(=O)c3cccs3)c3ccccc3C2=O)cc1` it was > 26 µM (inactive).
The result for `CCn1c(SCC(=O)Nc2ccc(OC)cc2)nc2nc3c(cc2c1=O)CCCC3` reads > 26 µM (inactive); that for `CCCCCCCCCCn1c2c(c(=N)c3c1CCC3)CCC2`, > 26 µM (inactive).
Take `Cc1ccc(/C=N/Nc2ccnc3cc(Cl)ccc23)c(C)c1`: the AC50 was > 12 µM (inactive).
Regarding `Cc1cc(-c2ccccc2)cc(C)[n+]1Cc1ccccc1`, the AC50 is > 26 µM (inactive).
With `NNC(=S)Nc1ccc(OC(F)(F)F)cc1`, the AC50 is > 26 µM (inactive).
The result for `O=C(CSc1nnc(Cn2nnc3ccccc32)o1)N(Cc1ccc(Cl)cc1)c1ccccc1` reads > 26 µM (inactive).
`COc1cccc(/C=N/NC(=O)CN2CC(c3ccccc3)CC2=O)c1O` (configuration not stated): the AC50 is > 26 µM (inactive).
The result for `CNC[C@@H](Cc1ccccc1)NC[C@@H](CC1CCCCC1)NCCCc1ccccc1` reads > 26 µM (inactive).
In the case of `CCN1/C(=C/c2cccc[n+]2C)Sc2ccc(OC)cc21` it was > 26 µM (inactive).
In the case of `CC1=NN(c2ccc(C)c(C)c2)C(=O)/C1=C\C=C\c1ccc([N+](=O)[O-])o1` it was > 26 µM (inactive); in that of `COc1cc(C(=O)Oc2c(CN3CCOCC3)cc(Cl)c3cccnc23)cc(OC)c1OC`, > 26 µM (inactive); in that of `N#CCC(=O)N/N=C/c1cc(-c2ccccc2)n(-c2ccc(Cl)cc2)c1-c1ccccc1`, > 26 µM (inactive).
As for `Cc1ccc(S(=O)(=O)N2CCCCC2c2cccnc2)c(C)c1C` (configuration not stated), the AC50 was > 26 µM (inactive).
The result for `Oc1c(C(Nc2ccccn2)c2ccccn2)ccc2cccnc12` (configuration not stated) reads > 12 µM (inactive); that for `COc1ccc(OCc2n(CC(=O)OC3CC(C)CCC3C(C)C)c3ccccc3[n+]2C)cc1` (configuration not stated), > 26 µM (inactive).
The result for `O=C(NC(Nc1nc2ccc([N+](=O)[O-])cc2s1)(C(F)(F)F)C(F)(F)F)c1ccccc1` reads > 26 µM (inactive).
In the case of `COc1cccc(/C=N/Nc2nc3ccccc3[nH]2)c1O` it was > 26 µM (inactive).
Regarding `CCc1ccc(S(=O)(=O)/N=C2\C=C(Nc3ccc(C(=O)O)cc3)C(=O)c3ccccc32)cc1`, the AC50 was > 26 µM (inactive).
